One may read the mortality as the percentage killed.

The test system of assay [1] is Beet Armyworm (Spodoptera exigua, LAPHEG). The assay can be described thus: Bioassay on Beet Armyworm (BAW), 128-well diet tray assay. Type of assay: in vivo. As to conditions: 168 h, 50 μg/cm^2 on artificial diet, second instar larvae, five to seven days, 25° C., read-out: BAW % Control (or Mortality) rating. The method, then:
(§1) Example A: Bioassays on Beet Armyworm (Spodoptera Exigua, LAPHEG) (“BAW”), Corn Earworm (Helicoverpa zea, HELIZE) (“CEW”), and Cabbage Looper (Trichoplusia ni, TRIPNI) (“CL”)
(§2) Certain molecules disclosed in this document were tested against BAW, CEW, and CL using procedures described in the following examples. In the reporting of the results, the “BAW, CEW, & CL Rating Table” was used (See Table Section).
Bioassays on BAW were conducted using a 128-well diet tray assay. One to five second instar BAW larvae were placed in each well (3 mL) of the diet tray that had been previously filled with 1 mL of artificial diet to which 50 μg/cm^2 of the test molecule (dissolved in 50 μL of 90:10 acetone-water mixture) had been applied (to each of eight wells) and then allowed to dry. Trays were covered with a clear self-adhesive cover and held at 25° C., 14:10 light-dark for five to seven days. Percent mortality was recorded for the larvae in each well; activity in the eight wells was then averaged. The results are indicated in the table entitled “Table ABC: Biological Results” (See Table Section).
(§3) Bioassays on BAW and CL were conducted according to the procedures outlined in Example A: Bioassays on Beet Armyworm (“BAW”) and Cabbage Looper (“CL”) using the indicated concentrations.

For assay [2], the system named is Cabbage Looper (Trichoplusia ni, TRIPNI). Put plainly: Bioassay on Cabbage Looper (CL), 128-well diet tray assay. Type of assay: in vivo. The conditions noted are these: 168 h, 50 μg/cm^2 on artificial diet, second instar larvae, five to seven days, 25° C., read-out: CL % Control (or Mortality) rating. On the procedure:
as §1, §2
Bioassays on CL were conducted using a 128-well diet tray assay. One to five second instar CL larvae were placed in each well (3 mL) of the diet tray that had been previously filled with 1 mL of artificial diet to which 50 μg/cm^2 of the test molecule (dissolved in 50 μL of 90:10 acetone-water mixture) had been applied (to each of eight wells) and then allowed to dry. Trays were covered with a clear self-adhesive cover and held at 25° C., 14:10 light-dark for five to seven days. Percent mortality was recorded for the larvae in each well; activity in the eight wells was then averaged. The results are indicated in the table entitled “Table ABC: Biological Results” (See Table Section).
as §3

Consider `C[C@H](CS(=O)(=O)CC(F)(F)F)NC(=O)c1ccc(/C(F)=C/C(c2cc(Cl)c(Cl)c(Br)c2)C(F)(F)F)cc1C(F)(F)F` (stereo partly drawn) [F80, 4-((Z)-3-(3-Bromo-4,5-dichlorophenyl)-1,4,4,4-tetrafluorobut-1-en-1-yl)-N—((R)-1-((2,2,2-trifluoroethyl)sulfonyl)propan-2-yl)-2-(trifluoromethyl)benzamide], for which the mortality at 50 µg/cm2 in assay [1] and in assay [2] was 50 to 100% each time.

On to `C[C@H](CS(=O)(=O)CC(F)(F)F)NC(=O)c1ccc(/C(F)=C/C(c2cc(Cl)cc(C(F)(F)F)c2)C(F)(F)F)cc1C(F)(F)F` (stereo partly drawn) [F81, 4-((Z)-3-(3-Chloro-5-(trifluoromethyl)phenyl)-1,4,4,4-tetrafluorobut-1-en-1-yl)-N—((R)-1-((2,2,2-trifluoroethyl)sulfonyl)propan-2-yl)-2-(trifluoromethyl)benzamide], for which the mortality at 50 µg/cm2 in assay [1] and in assay [2] was 50 to 100% throughout.

On to `C[C@H](CSCC(F)F)NC(=O)c1ccc(/C(F)=C/C(c2cc(Cl)c(Cl)c(Cl)c2)C(F)(F)F)cc1C(F)(F)F` (stereo partly drawn) [F82, N—((R)-1-((2,2-Difluoroethyl)thio)propan-2-yl)-4-((Z)-1,4,4,4-tetrafluoro-3-(3,4,5-trichlorophenyl)but-1-en-1-yl)-2-(trifluoromethyl)benzamide], for which the mortality at 50 µg/cm2 in assay [1] and in assay [2] was 50 to 100% in each case.

For the compound `C[C@H](CSCC#N)NC(=O)c1ccc(/C(F)=C/C(c2cc(Cl)c(Cl)c(Cl)c2)C(F)(F)F)cc1C(F)(F)F` (stereo partly drawn) [F83, N—((R)-1-((Cyanomethyl)thio)propan-2-yl)-4-((Z)-1,4,4,4-tetrafluoro-3-(3,4,5-trichlorophenyl)but-1-en-1-yl)-2-(trifluoromethyl)benzamide], the mortality at 50 µg/cm2 in assay [1] and in assay [2] was 50 to 100% in each case.

Turning to `C[C@H](CSCCF)NC(=O)c1ccc(/C(F)=C/C(c2cc(Cl)c(Cl)c(Cl)c2)C(F)(F)F)cc1C(F)(F)F` (stereo partly drawn) [F84, N—((R)-1-((2-Fluoroethyl)thio)propan-2-yl)-4-((Z)-1,4,4,4-tetrafluoro-3-(3,4,5-trichlorophenyl)but-1-en-1-yl)-2-(trifluoromethyl)benzamide], the mortality at 50 µg/cm2 in assay [1] and in assay [2] was 50 to 100% each time.

As for `C[C@H](CS(=O)(=O)CCF)NC(=O)c1ccc(/C(F)=C/C(c2cc(Cl)c(Cl)c(Cl)c2)C(F)(F)F)cc1C(F)(F)F` (stereo partly drawn) [F85, N—((R)-1-((2-Fluoroethyl)sulfonyl)propan-2-yl)-4-((Z)-1,4,4,4-tetrafluoro-3-(3,4,5-trichlorophenyl)but-1-en-1-yl)-2-(trifluoromethyl)benzamide], the mortality at 50 µg/cm2 in assay [1] and in assay [2] was 50 to 100% each time.

Regarding `C[C@H](C[S+]([O-])CC(F)F)NC(=O)c1ccc(/C(F)=C/C(c2cc(Cl)c(Cl)c(Cl)c2)C(F)(F)F)cc1C(F)(F)F` (stereo partly drawn) [F86, N-((2R)-1-((2,2-Difluoroethyl)sulfinyl)propan-2-yl)-4-((Z)-1,4,4,4-tetrafluoro-3-(3,4,5-trichlorophenyl)but-1-en-1-yl)-2-(trifluoromethyl)benzamide], the mortality at 50 µg/cm2 in assay [1] and in assay [2] was 50 to 100% in each case.

As to `C[C@H](CS(C)(=O)=O)NC(=O)c1ccc(/C(F)=C/C(c2cc(Cl)c(Cl)c(Cl)c2)C(F)(F)F)cc1C(F)(F)F` (stereo partly drawn) [F87, N—((R)-1-(methylsulfonyl)propan-2-yl)-4-((Z)-1,4,4,4-tetrafluoro-3-(3,4,5-trichlorophenyl)but-1-en-1-yl)-2-(trifluoromethyl)benzamide], the mortality at 50 µg/cm2 in assay [1] and in assay [2] was 50 to 100% in each case.

Take `CSC(C)CNC(=O)c1ccc(/C(F)=C/C(c2cc(Cl)c(Cl)c(Cl)c2)C(F)(F)F)cc1C(F)(F)F` (stereo not drawn) [F89, (Z)—N-(2-(Methylthio)propyl)-4-(1,4,4,4-tetrafluoro-3-(3,4,5-trichlorophenyl)but-1-en-1-yl)-2-(trifluoromethyl)benzamide]: the mortality at 50 µg/cm2 in assay [1] and in assay [2] was 50 to 100% throughout.

(Values after patent US10681908B2, “Molecules having pesticidal utility, and intermediates, compositions, and processes, related thereto” (Dow AgroSciences LLC, priority 2016, dated 2020).)
